Measurements as given in patent US20240109917A1 (ACTELION PHARMACEUTICALS LTD, priority 2020, published 2024).

Key:
[1] = target: His6-TEV-PDGFRβ (557-1016) (Homo sapiens (Human), UniProt P09619); test: PDGFRβ HTRF Assay; format: biochemical; conditions: read-out: PDGFR HTRF IC50
In short: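 HTRF KinEASE-TK readout (665/620 nm ratio) of TK-biotin substrate phosphorylation by His-tagged PDGFRβ kinase domain. Enzyme and inhibitor preincubated 30 min, then ATP/substrate added for 3 h at room temperature before 60 min EDTA quench/detection.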

PDGFRβ = PDGFRβ (Rattus norvegicus (Rat), UniProt Q05030); test: PDGFRβ Cellular Assay (PDGFRb P-Y751 HTRF in A10 cells stimulated with PDGF-BB); format: cell-based; conditions: read-out: PDGFR Cellular IC50
In short: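 Phospho-Y751 PDGFRβ was measured by HTRF in lysates of A10 rat cells. Cells received compound for 3 hours before PDGF-BB stimulation (100 ng/mL working stock).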

Sequence of His6-TEV-PDGFRβ (557-1016) (P09619 557-1016): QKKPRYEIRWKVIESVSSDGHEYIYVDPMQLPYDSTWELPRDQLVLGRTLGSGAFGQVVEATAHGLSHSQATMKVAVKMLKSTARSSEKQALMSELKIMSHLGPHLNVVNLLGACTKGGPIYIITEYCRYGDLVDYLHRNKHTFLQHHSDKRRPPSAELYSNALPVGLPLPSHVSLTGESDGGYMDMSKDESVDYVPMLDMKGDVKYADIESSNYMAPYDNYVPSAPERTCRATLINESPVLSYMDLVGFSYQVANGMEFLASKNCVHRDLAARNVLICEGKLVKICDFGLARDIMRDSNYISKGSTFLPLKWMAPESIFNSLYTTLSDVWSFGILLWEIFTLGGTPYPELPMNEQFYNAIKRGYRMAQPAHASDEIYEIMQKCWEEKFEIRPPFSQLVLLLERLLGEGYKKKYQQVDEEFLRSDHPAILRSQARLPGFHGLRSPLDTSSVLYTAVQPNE
Sequence of PDGFRβ (Q05030 32-1097): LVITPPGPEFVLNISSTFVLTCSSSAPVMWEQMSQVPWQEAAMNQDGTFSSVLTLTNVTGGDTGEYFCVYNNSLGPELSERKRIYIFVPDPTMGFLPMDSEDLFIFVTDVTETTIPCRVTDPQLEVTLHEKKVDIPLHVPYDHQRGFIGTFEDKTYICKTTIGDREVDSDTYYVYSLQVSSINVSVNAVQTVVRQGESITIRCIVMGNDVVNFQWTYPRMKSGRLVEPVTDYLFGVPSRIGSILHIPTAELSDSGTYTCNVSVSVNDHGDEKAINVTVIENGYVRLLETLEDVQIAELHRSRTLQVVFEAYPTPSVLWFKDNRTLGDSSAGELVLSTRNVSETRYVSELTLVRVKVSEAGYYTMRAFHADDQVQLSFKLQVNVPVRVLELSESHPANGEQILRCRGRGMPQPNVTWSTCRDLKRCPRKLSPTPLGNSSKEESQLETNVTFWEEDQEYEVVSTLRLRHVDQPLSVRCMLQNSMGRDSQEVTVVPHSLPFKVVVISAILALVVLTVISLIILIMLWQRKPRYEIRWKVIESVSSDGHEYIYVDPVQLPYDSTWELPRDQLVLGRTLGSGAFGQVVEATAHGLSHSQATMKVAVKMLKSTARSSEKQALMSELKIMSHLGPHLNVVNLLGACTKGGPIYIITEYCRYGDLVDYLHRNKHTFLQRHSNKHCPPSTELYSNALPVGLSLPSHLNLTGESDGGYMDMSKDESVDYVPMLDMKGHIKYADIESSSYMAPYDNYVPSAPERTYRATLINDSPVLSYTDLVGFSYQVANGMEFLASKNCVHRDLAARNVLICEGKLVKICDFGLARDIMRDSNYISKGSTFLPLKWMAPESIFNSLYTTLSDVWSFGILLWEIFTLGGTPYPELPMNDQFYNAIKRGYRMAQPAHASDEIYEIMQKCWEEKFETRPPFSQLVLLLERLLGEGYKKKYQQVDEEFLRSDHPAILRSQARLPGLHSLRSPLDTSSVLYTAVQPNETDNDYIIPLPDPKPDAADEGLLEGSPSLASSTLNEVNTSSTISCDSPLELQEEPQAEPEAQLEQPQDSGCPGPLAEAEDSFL

SMILES | IC50 [1] [nM] | IC50 (PDGFRβ) [nM]
Cc1ncc(C(=O)NCCN2CC3COCC3C2)cc1NC(=O)c1cnn2cc(-c3cnn(C)c3)sc12 (stereo not drawn) [Example 112, 2-(1-methyl-1H-pyrazol-4-yl)-N-(2-methyl-5-((2-(tetrahydro-1H-furo[3,4-c]pyrrol-5 (3H)-yl)ethyl)carbamoyl)pyridin-3-yl)pyrazolo[5,1-b]thiazole-7-carboxamide] | 0.5 | 159
Cc1ncc(C(=O)NCCN2CCC3(CCOC3)C2)cc1NC(=O)c1cnn2cc(-c3cnn(C)c3)sc12 (stereo not drawn) [Example 116, N-(5-((2-(2-oxa-7-azaspiro[4.4]nonan-7-yl)ethyl)carbamoyl)-2-methylpyridin-3-yl)-2-(1-methyl-1H-pyrazol-4-yl)pyrazolo[5,1-b]thiazole-7-carboxamide] | 0.5 | 74.7
Cc1ncc(C(=O)NCCN2CCCC2(C)C)cc1NC(=O)c1cnn2cc(-c3cn(C)cn3)sc12 [Example 163, N-(5-((2-(2,2-dimethylpyrrolidin-1-yl)ethyl)carbamoyl)-2-methylpyridin-3-yl)-2-(1-methyl-1H-imidazol-4-yl)pyrazolo[5,1-b]thiazole-7-carboxamide] | 0.3 | 160
CC(=O)N1CCN(CCNC(=O)c2cnc(C)c(NC(=O)c3cnn4cc(-c5cnn(C)c5)sc34)c2)CC1 [Example 129, N-(5-((2-(4-acetylpiperazin-1-yl)ethyl)carbamoyl)-2-methylpyridin-3-yl)-2-(1-methyl-1H-pyrazol-4-yl)pyrazolo[5,1-b]thiazole-7-carboxamide] | 2.9 | > 3000
Cc1ncc(NC(=O)CCN2CCC3(CC2)CC3)cc1NC(=O)c1cnn2cc(-c3cnn(C)c3)sc12 [Example 97, N-(5-(3-(6-azaspiro[2.5]octan-6-yl)propanamido)-2-methylpyridin-3-yl)-2-(1-methyl-1H-pyrazol-4-yl)pyrazolo[5,1-b]thiazole-7-carboxamide] | 0.4 | 8.4
Cc1ncc(C(=O)NCCN2CCC3(CCC3)C2)cc1NC(=O)c1cnn2cc(-c3cnn(C)c3)sc12 [Example 113, N-(5-((2-(6-azaspiro[3.4]octan-6-yl)ethyl)carbamoyl)-2-methylpyridin-3-yl)-2-(1-methyl-1H-pyrazol-4-yl)pyrazolo[5,1-b]thiazole-7-carboxamide] | < 0.1 | 11.5
Cc1ncc(C(=O)NCCN2CC3CC(C3)C2)cc1NC(=O)c1cnn2cc(-c3cnn(C)c3)sc12 [Example 5, N-(5-((2-(3-azabicyclo[3.1.1]heptan-3-yl)ethyl)carbamoyl)-2-methylpyridin-3-yl)-2-(1-methyl-1H-pyrazol-4-yl)pyrazolo[5,1-b]thiazole-7-carboxamide] | 0.4 | 26.2
Cc1ncc(C(=O)NCCN2CCOCC23CC3)cc1NC(=O)c1cnn2cc(-c3cnn(C)c3)sc12 [Example 110, N-(5-((2-(7-oxa-4-azaspiro[2.5]octan-4-yl)ethyl)carbamoyl)-2-methylpyridin-3-yl)-2-(1-methyl-1H-pyrazol-4-yl)pyrazolo[5,1-b]thiazole-7-carboxamide] | 0.6 | 35.4
Cc1ncc(C(=O)NCCN2CCC(F)(F)C2)cc1NC(=O)c1cnn2cc(-c3cnn(C)c3)sc12 [Example 120, N-(5-((2-(3,3-difluoropyrrolidin-1-yl)ethyl)carbamoyl)-2-methylpyridin-3-yl)-2-(1-methyl-1H-pyrazol-4-yl)pyrazolo[5,1-b]thiazole-7-carboxamide] | 0.4 | 9.3
Cc1ncc(C(=O)NCCN2CC3CCC2CC3)cc1NC(=O)c1cnn2cc(-c3cnn(C4COC4)c3)sc12 [Example 144, N-(5-((2-(2-azabicyclo[2.2.2]octan-2-yl)ethyl)carbamoyl)-2-methylpyridin-3-yl)-2-(1-(oxetan-3-yl)-1H-pyrazol-4-yl)pyrazolo[5,1-b]thiazole-7-carboxamide] | 0.3 | 106
Cc1ncc(C(=O)NCCN2CC(F)(F)C2)cc1NC(=O)c1cnn2cc(-c3cnn(C)c3)sc12 [Example 125, N-(5-((2-(3,3-difluoroazetidin-1-yl)ethyl)carbamoyl)-2-methylpyridin-3-yl)-2-(1-methyl-1H-pyrazol-4-yl)pyrazolo[5,1-b]thiazole-7-carboxamide] | 0.3 | 47.6
COCCn1cc(-c2cn3ncc(C(=O)Nc4cc(C(=O)NCCN5CC6(CCC6)C5)cnc4C)c3s2)cn1 [Example 168, N-(5-((2-(2-azaspiro[3.3]heptan-2-yl)ethyl)carbamoyl)-2-methylpyridin-3-yl)-2-(1-(2-methoxyethyl)-1H-pyrazol-4-yl)pyrazolo[5,1-b]thiazole-7-carboxamide] | 0.6 | 371
Cc1ncc(C(=O)NCCN2CCC23CCC3)cc1NC(=O)c1cnn2cc(-c3cnn(C)c3C)sc12 [Example 169, N-(5-((2-(1-azaspiro[3.3]heptan-1-yl)ethyl)carbamoyl)-2-methylpyridin-3-yl)-2-(1,5-dimethyl-1H-pyrazol-4-yl)pyrazolo[5,1-b]thiazole-7-carboxamide] | 0.3 | 15
COCCn1nc(C)c(-c2cn3ncc(C(=O)Nc4cc(NC(=O)CCN5CCC6(CC6)C5)cnc4C)c3s2)c1C [Example 103, N-(5-(3-(5-azaspiro[2.4]heptan-5-yl)propanamido)-2-methylpyridin-3-yl)-2-(1-(2-methoxyethyl)-3,5-dimethyl-1H-pyrazol-4-yl)pyrazolo[5,1-b]thiazole-7-carboxamide] | 0.8 | 38.8
Cc1ncc(C(=O)NCCN2CC3CCC2CC3)cc1NC(=O)c1cnn2cc(-c3cnn(CS(C)(=O)=O)c3)sc12 [Example 143, N-(5-((2-(2-azabicyclo[2.2.2]octan-2-yl)ethyl)carbamoyl)-2-methylpyridin-3-yl)-2-(1-((methylsulfonyl)methyl)-1H-pyrazol-4-yl)pyrazolo[5,1-b]thiazole-7-carboxamide] | 0.6 | 998
Cc1ncc(C(=O)NCCN2CCCC2(C)C)cc1NC(=O)c1cnn2cc(-c3cnn(C)c3)sc12 [Example 8, N-(5-((2-(2,2-dimethylpyrrolidin-1-yl)ethyl)carbamoyl)-2-methylpyridin-3-yl)-2-(1-methyl-1H-pyrazol-4-yl)pyrazolo[5,1-b]thiazole-7-carboxamide] | 0.4 | 43.6
COCCn1cc(-c2cn3ncc(C(=O)Nc4cc(C(=O)NCCN5CCC(F)(F)C5)cnc4C)c3s2)cn1 [Example 167, N-(5-((2-(3,3-difluoropyrrolidin-1-yl)ethyl)carbamoyl)-2-methylpyridin-3-yl)-2-(1-(2-methoxyethyl)-1H-pyrazol-4-yl)pyrazolo[5,1-b]thiazole-7-carboxamide] | 0.5 | 24.7
Cc1ncc(C(=O)NCCN2CCC3(CC3)C2)cc1NC(=O)c1cnn2cc(-c3cn(C)cn3)sc12 [Example 162, N-(5-((2-(5-azaspiro[2.4]heptan-5-yl)ethyl)carbamoyl)-2-methylpyridin-3-yl)-2-(1-methyl-1H-imidazol-4-yl)pyrazolo[5,1-b]thiazole-7-carboxamide] | 0.4 | 660
Cc1ncc(C(=O)NCCN2CCCC23COC3)cc1NC(=O)c1cnn2cc(-c3cnn(C)c3)sc12 [Example 114, N-(5-((2-(2-oxa-5-azaspiro[3.4]octan-5-yl)ethyl)carbamoyl)-2-methylpyridin-3-yl)-2-(1-methyl-1H-pyrazol-4-yl)pyrazolo[5,1-b]thiazole-7-carboxamide] | 0.4 | 27.6
Cc1ncc(C(=O)NCCN2C3CCC2CC3)cc1NC(=O)c1cnn2cc(-c3cnn(C)c3C)sc12 [Example 172, N-(5-((2-(7-azabicyclo[2.2.1]heptan-7-yl)ethyl)carbamoyl)-2-methylpyridin-3-yl)-2-(1,5-dimethyl-1H-pyrazol-4-yl)pyrazolo[5,1-b]thiazole-7-carboxamide] | 0.3 | 66.6
Cc1ncc(NC(=O)CCN2CC(C)(C)C2)cc1NC(=O)c1cnn2cc(-c3cnn(C)c3)sc12 [Example 96, N-(5-(3-(3,3-dimethylazetidin-1-yl)propanamido)-2-methylpyridin-3-yl)-2-(1-methyl-1H-pyrazol-4-yl)pyrazolo[5,1-b]thiazole-7-carboxamide] | 0.6 | 17
Cc1ncc(C(=O)NCCN2CC(F)(F)C2)cc1NC(=O)c1cnn2cc(-c3ccncc3)sc12 [Example 152, N-(5-((2-(3,3-difluoroazetidin-1-yl)ethyl)carbamoyl)-2-methylpyridin-3-yl)-2-(pyridin-4-yl)pyrazolo[5,1-b]thiazole-7-carboxamide] | 0.4 | 66.2
Cc1ncc(C(=O)NCCN2CCCC2(C)C)cc1NC(=O)c1cnn2cc(-c3cnn(CCO)c3)sc12 [Example 140, N-(5-((2-(2,2-dimethylpyrrolidin-1-yl)ethyl)carbamoyl)-2-methylpyridin-3-yl)-2-(1-(2-hydroxyethyl)-1H-pyrazol-4-yl)pyrazolo[5,1-b]thiazole-7-carboxamide] | 0.5 | 309
COCCn1nc(C)c(-c2cn3ncc(C(=O)Nc4cc(NC(=O)CCN5CC6CCC(C5)O6)cnc4C)c3s2)c1C [Example 102, N-(5-(3-(8-oxa-3-azabicyclo[3.2.1]octan-3-yl)propanamido)-2-methylpyridin-3-yl)-2-(1-(2-methoxyethyl)-3,5-dimethyl-1H-pyrazol-4-yl)pyrazolo[5,1-b]thiazole-7-carboxamide] | 1.3 | 21.8
